Results on three compounds are retold here after patent US4563453A, “Thiazine derivatives, processes for preparation thereof and pharmaceutical composition comprising the same” (Fujisawa Pharmaceutical Co., Ltd., priority 1983, dated 1986).

In assay [1] the test system is Carrageenin foot edema. Description: Carrageenin foot edema (paw edema in rats). It counts as in vivo, Male Sprague-Dawley rats. As to conditions: rat, oral, 10.0 mg/kg, 60 minutes before phlogogen; edema volume 3 hours after 1% carrageenin. Here is the method:
TEST A (Carrageenin foot edema)
Male Sprague-Dawley rats weighing about 200 g were used in groups of five. Paw edema was induced by subplantar injection of 1% carrageenin (0.1 ml/rat) into the right hind paw. The test drug was suspended in 0.5% methylcellulose and administered orally 60 minutes before phlogogen. Paw volume was measured with plethysmometer (Ugo Basil Co., Ltd.) by water displacement immersing the paw to the lateral malleolus. The difference of paw volume before and 3 hours after the phlogogen was designated as edema volume. The data was analyzed statistically by student's t-test.

The subject of assay [2] is Arthus foot edema. Kind of assay: Arthus foot edema (paw edema in rats). As to conditions: rat, oral, 100 mg/kg, 60 minutes before phlogogen; edema volume 3 hours after egg albumin i.v./anti egg albumin antiserum subplantar. It counts as in vivo, Male Sprague-Dawley rats. As to the method: TEST B (Arthus foot edema)
Five male Sprague-Dawley rats weighing about 200 g were used per group.
Paw edema was induced by intravenous injection of egg albumin (0.5 mg/rat) and subplantar injection of anti egg albumin antiserum (0.1 ml/rat) in Arthus type foot edema. The test drug was suspended in methylcellulose and administered orally 60 minutes before phlogogen. Paw volume was measured with plethysmometer (Ugo Basil Co., Ltd.) by water displacement immersing the paw to the lateral malleolus. The difference of paw volume before and 3 hours after the phlogogen was designated as edema volume. The data were analyzed statistically by student's t-test.

Take `CN1C(C(=O)Nc2cccccc2=O)=C(O)c2sccc2S1(=O)=O` [(a), 4-Hydroxy-2-methyl-N-(1-oxo-2,4,6-cycloheptatrien-2-yl)-2H-thieno[2,3-e]-1,2-thiazine-3-carboxamide 1,1-dioxide]: the “Inhibition (%)” value in assay [1] worked out at 63.6%.
Turning to `CN1C(C(=O)Nc2cccccc2=O)=C(O)c2sc3ccccc3c2S1(=O)=O` [(b), 4-Hydroxy-2-methyl-N-(1-oxo-2,4,6-cycloheptatrien-2-yl)-2H-[1]benzothieno[2,3-e]-1,2-thiazine-3-carboxamide 1,1-dioxide], the “Inhibition (%)” value in assay [1] was found to be 34%.
As for `CN1C(C(=O)Nc2ccc(O)c(=O)cc2)=C(O)c2sccc2S1(=O)=O` [4-Hydroxy-2-methyl-N-(2-hydroxy-1-oxo-2,4,6-cycloheptatrien-5-yl)-2H-thieno[2,3-e]-1,2-thiazine-3-carboxamide 1,1-dioxide], the “Inhibition (%)” value in assay [2] is 37.8%.
